The source of these data is PubChem BioAssay (NCI).

Structures are written as SMILES.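 1) Cells in 96-well plates. 2) Compound, 48 h, 5 concentrations. 3) Linear interpolation between surrounding doses. 4) Unreached endpoint = highest concentration. The concentration for 50% growth inhibition is given as GI50. At the TGI there is no net growth.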

Test systems include HT29 colon; OVCAR-3 ovarian; TK-10 renal; UACC-257 melanoma; NCI-H522 lung; IGROV1 ovarian; U251 CNS; SF-268 CNS; NCI/ADR-RES ovarian; MALME-3M melanoma.
Common to all, as to assay: NCI anticancer screen, dose series, 48 h

`CCOC(=O)c1ccccc1NC(c1ccccc1)c1ccc2cccnc2c1O` (stereo unspecified): the GI50 in the assay with HT29 colon was 4.58 µM; in the assay on OVCAR-3 ovarian, 3850 nM; with TK-10 renal, 5.52 µM; with UACC-257 melanoma, 2980 nM; with NCI-H522 lung, 3.36 µM; in the assay with IGROV1 ovarian, 4.01 µM. For the same molecule, the GI50 was 2750 nM in the assay on U251 CNS, 3.14 µM in the assay with SF-268 CNS and 2780 nM with NCI/ADR-RES ovarian. Moreover, the TGI in the assay on HT29 colon was greater than 100 µM; with OVCAR-3 ovarian, 23.4 µM; in the assay on TK-10 renal it was greater than 100 µM; with UACC-257 melanoma, 21.5 µM; with NCI-H522 lung, 11.6 µM; with IGROV1 ovarian, 24.1 µM. For the same molecule, the TGI with U251 CNS was 16.5 µM; with SF-268 CNS, 29 µM; in the assay on NCI/ADR-RES ovarian it was 21.4 µM.

For `C/C=C\C(C)=C/C(C)C(=O)CC(O)CC1CC(=O)NC(=O)C1` (stereo unspecified), the TGI in the assay with HT29 colon was greater than 100 µM; in the assay on OVCAR-3 ovarian, greater than 100 µM; in the assay on TK-10 renal, greater than 100 µM; in the assay on UACC-257 melanoma, greater than 100 µM; with NCI-H522 lung it was 13.6 µM; in the assay on IGROV1 ovarian, greater than 100 µM. For the same molecule, the TGI with U251 CNS was greater than 100 µM; in the assay with SF-268 CNS, greater than 100 µM; in the assay with NCI/ADR-RES ovarian, 48.2 µM.

In the case of `Cc1cccc(NC(=O)c2sc3nc4c(cc3c2N)CCC4)c1C`, the GI50 with OVCAR-3 ovarian is 308 nM; in the assay with TK-10 renal it was 0.74 µM; in the assay on UACC-257 melanoma it was 2670 nM; with NCI-H522 lung, 0.325 µM; in the assay on IGROV1 ovarian, 0.766 µM; in the assay with U251 CNS, 457 nM. The GI50 in the assay on SF-268 CNS was 0.722 µM; with NCI/ADR-RES ovarian it was 279 nM. Also, the TGI came to 1.47 µM with OVCAR-3 ovarian; 26.5 µM in the assay on TK-10 renal; 46.6 µM in the assay on UACC-257 melanoma; 16.5 µM in the assay with NCI-H522 lung; 53 µM in the assay with IGROV1 ovarian; 15.8 µM in the assay with U251 CNS. The TGI in the assay with SF-268 CNS was 26 µM; in the assay on NCI/ADR-RES ovarian, 10.3 µM.

With `O=C(/C=C\c1ccc(Cl)c(Cl)c1)c1ccccc1`, the GI50 with HT29 colon is 2.27 µM; with OVCAR-3 ovarian, 6340 nM; in the assay with UACC-257 melanoma, 12200 nM; in the assay with NCI-H522 lung, 10.2 µM; with IGROV1 ovarian it was 6.82 µM; with U251 CNS, 3340 nM. Further, the GI50 is 11.1 µM in the assay on SF-268 CNS and 5490 nM with NCI/ADR-RES ovarian. For the same molecule, the TGI turned out to be 5.37 µM in the assay on HT29 colon; 18.9 µM in the assay on OVCAR-3 ovarian; 24.9 µM in the assay on UACC-257 melanoma; 22.2 µM in the assay on NCI-H522 lung; 21 µM in the assay with IGROV1 ovarian; 15.6 µM in the assay with U251 CNS. In addition, the values for the TGI with SF-268 CNS and in the assay on NCI/ADR-RES ovarian were 24.7 µM and 26.4 µM, respectively.

On to `N#Cc1c(-c2ccc(Cl)cc2)n([O-])c2ccccc2[n+]1=O`, for which the GI50 in the assay on HT29 colon is 17.2 µM; in the assay on OVCAR-3 ovarian, 1270 nM; in the assay with TK-10 renal it was 11.7 µM; in the assay with UACC-257 melanoma, 18200 nM; in the assay on NCI-H522 lung, 14.7 µM; in the assay with IGROV1 ovarian, 2.89 µM. The GI50 with U251 CNS was 4370 nM; in the assay with SF-268 CNS, 14.6 µM; in the assay on NCI/ADR-RES ovarian, 4050 nM. Moreover, the TGI with HT29 colon came to 42.2 µM; in the assay on OVCAR-3 ovarian it was 2.88 µM; with TK-10 renal, 24.6 µM; with UACC-257 melanoma it was 34.4 µM; with NCI-H522 lung, 38.5 µM; in the assay on IGROV1 ovarian, 15.6 µM. The TGI was found to be 17.1 µM in the assay with U251 CNS, 33.8 µM in the assay with SF-268 CNS and 16.1 µM in the assay on NCI/ADR-RES ovarian.

Take `CNCc1ccc(C)c(NC(=O)c2ccc(Nc3nc(-c4ccccc4)c4ccccc4n3)cc2)c1`: the GI50 with HT29 colon is 1.86 µM; in the assay with OVCAR-3 ovarian it was 1900 nM; with TK-10 renal, 2.12 µM; in the assay with UACC-257 melanoma, 1920 nM; in the assay with NCI-H522 lung, 1.86 µM; with U251 CNS it was 1540 nM. Moreover, the values for the GI50 in the assay on SF-268 CNS and in the assay on NCI/ADR-RES ovarian were 2.09 µM and 2250 nM, respectively. For the same molecule, the TGI with HT29 colon is 3.98 µM; in the assay with OVCAR-3 ovarian it was 3.84 µM; in the assay with TK-10 renal, 4.56 µM; in the assay on UACC-257 melanoma, 3.73 µM; with NCI-H522 lung, 3.57 µM; in the assay with U251 CNS, 2.96 µM. The TGI in the assay with SF-268 CNS was determined as 4.26 µM; in the assay with NCI/ADR-RES ovarian, 5.25 µM.

As for `O=C(Nc1cccc(Cl)c1)c1cc2cc(N=Nc3ccc(Br)cc3)ccc2oc1=O`, the TGI with HT29 colon, in the assay with OVCAR-3 ovarian, in the assay on TK-10 renal, in the assay on MALME-3M melanoma, in the assay with UACC-257 melanoma and in the assay with NCI-H522 lung was greater than 100 µM throughout. Moreover, the TGI in the assay with IGROV1 ovarian, with U251 CNS and with SF-268 CNS was greater than 100 µM each time.

Regarding `Cc1ccc(S(=O)(=O)NC2(C=O)CCC(C(C)(C)C)CC2)cc1` (stereo unspecified), the TGI in the assay on HT29 colon is greater than 100 µM; in the assay with OVCAR-3 ovarian, greater than 100 µM; in the assay on TK-10 renal, greater than 100 µM; in the assay with MALME-3M melanoma it was greater than 100 µM; with UACC-257 melanoma, greater than 100 µM; in the assay with NCI-H522 lung, 54.9 µM. Further, the TGI in the assay with IGROV1 ovarian, with U251 CNS and in the assay with SF-268 CNS was greater than 100 µM throughout.
